Experimental data reported in paper PMC4178217, “Quinoline 3-sulfonamides inhibit lactate dehydrogenase A and reverse aerobic glycolysis in cancer cells” (Cancer & Metabolism, 2013).
“Also recorded” adds a separate entry of the source.

Assays:
[1] = molecular target: T1, Serotonin Receptor 5HT3 (Homo sapiens, UniProt P46098); assay: Serotonin Receptor 5HT3 ANT; conditions: antagonist; read-out: pIC50 Serotonin Receptor 5HT3 ANT (converted)
T1 sequence (P46098 24-478): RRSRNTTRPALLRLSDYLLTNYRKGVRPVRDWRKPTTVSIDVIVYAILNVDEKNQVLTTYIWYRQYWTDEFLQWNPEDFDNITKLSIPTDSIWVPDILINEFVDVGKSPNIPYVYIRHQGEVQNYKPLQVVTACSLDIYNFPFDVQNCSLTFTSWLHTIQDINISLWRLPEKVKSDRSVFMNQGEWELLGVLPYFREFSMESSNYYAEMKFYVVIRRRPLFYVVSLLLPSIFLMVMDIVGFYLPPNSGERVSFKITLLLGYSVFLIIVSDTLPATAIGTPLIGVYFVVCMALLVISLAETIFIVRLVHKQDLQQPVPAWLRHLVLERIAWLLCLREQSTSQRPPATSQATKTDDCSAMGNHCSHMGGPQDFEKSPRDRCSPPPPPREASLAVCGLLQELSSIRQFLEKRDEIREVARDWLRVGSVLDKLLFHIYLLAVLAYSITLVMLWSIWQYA
From the text: (§1) ANT = antagonist (pIC50), AG = agonist (pEC50). pIC50 and pEC50 are the negative logarithms10 of IC50 and EC50, respectively. Click here for file

[2] = molecular target: T2, Muscarinic Receptor M2 (Homo sapiens, UniProt P08172); assay: Muscarinic Receptor M2 AG; conditions: agonist; read-out: pEC50 Muscarinic Receptor M2 AG (converted)
T2 sequence (P08172 1-466): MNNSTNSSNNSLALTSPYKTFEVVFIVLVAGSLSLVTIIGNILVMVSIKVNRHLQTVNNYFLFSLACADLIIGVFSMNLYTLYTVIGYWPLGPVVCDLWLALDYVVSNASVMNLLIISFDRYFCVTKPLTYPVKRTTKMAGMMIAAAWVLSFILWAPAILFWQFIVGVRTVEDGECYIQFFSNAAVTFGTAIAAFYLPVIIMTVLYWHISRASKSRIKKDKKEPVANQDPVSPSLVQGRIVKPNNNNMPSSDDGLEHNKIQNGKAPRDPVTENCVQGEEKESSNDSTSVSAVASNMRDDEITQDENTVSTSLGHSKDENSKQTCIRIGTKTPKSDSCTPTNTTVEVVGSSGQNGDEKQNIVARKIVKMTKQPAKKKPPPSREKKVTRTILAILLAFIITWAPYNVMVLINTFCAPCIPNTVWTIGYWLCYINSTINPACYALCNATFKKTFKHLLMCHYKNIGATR
From the text: as §1

[3] = molecular target: Serotonin Receptor 5HT2A (Homo sapiens, UniProt P28223); assay: Serotonin Receptor 5HT2A AG; conditions: agonist; read-out: pEC50 Serotonin Receptor 5HT2A AG (converted)
From the text: as §1

[4] = molecular target: Adrenergic Receptor b2 (Homo sapiens, UniProt P07550); assay: Adrenergic Receptor b2 AG; conditions: agonist; read-out: pEC50 Adrenergic Receptor b2 AG (converted)
From the text: as §1

[5] = molecular target: T3, Serotonin Receptor 5HT2C (Homo sapiens, UniProt P28335); assay: Serotonin Receptor 5HT2C ANT; conditions: antagonist; read-out: pIC50 Serotonin Receptor 5HT2C ANT (converted)
T3 sequence (P28335 33-458): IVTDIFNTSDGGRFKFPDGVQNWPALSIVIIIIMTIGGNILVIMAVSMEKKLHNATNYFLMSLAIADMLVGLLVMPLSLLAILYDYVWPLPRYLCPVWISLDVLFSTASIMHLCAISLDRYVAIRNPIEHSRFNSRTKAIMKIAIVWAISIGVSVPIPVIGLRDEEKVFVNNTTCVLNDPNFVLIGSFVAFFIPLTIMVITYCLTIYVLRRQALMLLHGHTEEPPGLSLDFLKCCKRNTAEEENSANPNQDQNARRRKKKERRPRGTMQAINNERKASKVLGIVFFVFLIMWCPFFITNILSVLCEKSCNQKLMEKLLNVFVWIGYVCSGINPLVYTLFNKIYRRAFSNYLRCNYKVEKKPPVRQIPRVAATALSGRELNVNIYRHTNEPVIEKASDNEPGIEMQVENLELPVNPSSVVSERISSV
From the text: as §1

[6] = molecular target: Norepinephrin Transporter (Homo sapiens, UniProt P23975); assay: Norepinephrin Transporter ANT; conditions: antagonist; read-out: pIC50 Norepinephrin Transporter ANT (converted)
From the text: as §1

[7] = test system: Snu398 cells; assay: Fructose-1,6-bisphosphate (FBP) analysis; format: cell-based, human; conditions: Snu398, 10 μM, 24 h R10 or 6 h low glucose
Method: Treatment was carried out for 24 h in R10 or for 6 h in low glucose medium. At the end of this treatment, cells were washed, lifted by trypsinization, counted, and cell pellets were submitted for analysis of FBP to Apredica, Inc.

[8] = molecular target: T3, Serotonin Receptor 5HT2C; assay: Serotonin Receptor 5HT2C AG; conditions: agonist; read-out: pEC50 Serotonin Receptor 5HT2C AG (converted)
From the text: as §1

[9] = molecular target: Phosphoinositide 3-kinase g (Homo sapiens, UniProt P48736); assay: Phosphoinositide 3-kinase g ANT; format: biochemical; conditions: antagonist; read-out: pIC50 Phosphoinositide 3-kinase g ANT (converted)
From the text: as §1

[10] = molecular target: T4, Muscarinic Receptor M1 (Homo sapiens, UniProt P11229); assay: Muscarinic Receptor M1 ANT; conditions: antagonist; read-out: pIC50 Muscarinic Receptor M1 ANT (converted)
T4 sequence (P11229 1-460): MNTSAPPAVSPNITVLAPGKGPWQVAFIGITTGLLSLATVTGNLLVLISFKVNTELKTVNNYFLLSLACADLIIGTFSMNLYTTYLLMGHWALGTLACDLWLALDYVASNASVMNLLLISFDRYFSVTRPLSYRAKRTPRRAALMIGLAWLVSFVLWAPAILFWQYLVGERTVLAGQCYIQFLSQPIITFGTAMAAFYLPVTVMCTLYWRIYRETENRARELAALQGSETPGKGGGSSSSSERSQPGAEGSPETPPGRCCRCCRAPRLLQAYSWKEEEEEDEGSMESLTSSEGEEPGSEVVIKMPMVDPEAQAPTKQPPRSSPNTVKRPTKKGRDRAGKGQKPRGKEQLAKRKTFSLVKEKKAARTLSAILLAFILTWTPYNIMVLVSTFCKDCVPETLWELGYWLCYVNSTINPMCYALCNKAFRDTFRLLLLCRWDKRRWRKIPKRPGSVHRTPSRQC
From the text: as §1

[11] = molecular target: Potassium Channel KCNQ1 (Homo sapiens, UniProt P51787); assay: Potassium Channel KCNQ1 ANT; conditions: antagonist; read-out: pIC50 Potassium Channel KCNQ1 ANT (converted)
From the text: as §1

[12] = molecular target: Serotonin Receptor 5HT1B (Homo sapiens, UniProt P28222); assay: Serotonin Receptor 5HT1B ANT; conditions: antagonist; read-out: pIC50 Serotonin Receptor 5HT1B ANT (converted)
From the text: as §1

Sequence of Norepinephrin Transporter (P23975 whole entry): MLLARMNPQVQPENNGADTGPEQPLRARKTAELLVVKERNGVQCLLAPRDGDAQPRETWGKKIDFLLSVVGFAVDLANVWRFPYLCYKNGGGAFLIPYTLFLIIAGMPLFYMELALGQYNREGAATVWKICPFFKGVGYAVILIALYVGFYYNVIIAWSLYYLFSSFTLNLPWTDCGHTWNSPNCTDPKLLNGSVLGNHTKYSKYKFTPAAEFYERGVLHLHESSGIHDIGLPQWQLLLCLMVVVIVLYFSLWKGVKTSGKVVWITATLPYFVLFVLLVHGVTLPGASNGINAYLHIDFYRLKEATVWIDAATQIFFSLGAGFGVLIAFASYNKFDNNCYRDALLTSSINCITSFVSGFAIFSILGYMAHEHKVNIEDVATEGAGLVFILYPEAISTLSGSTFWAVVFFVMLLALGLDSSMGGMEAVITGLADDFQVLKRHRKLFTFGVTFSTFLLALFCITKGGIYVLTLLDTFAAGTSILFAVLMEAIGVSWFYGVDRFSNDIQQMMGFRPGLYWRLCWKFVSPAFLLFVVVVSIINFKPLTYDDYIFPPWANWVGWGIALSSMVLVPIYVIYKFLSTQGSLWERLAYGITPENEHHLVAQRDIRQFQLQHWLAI
Sequence of Serotonin Receptor 5HT1B (P28222 whole entry): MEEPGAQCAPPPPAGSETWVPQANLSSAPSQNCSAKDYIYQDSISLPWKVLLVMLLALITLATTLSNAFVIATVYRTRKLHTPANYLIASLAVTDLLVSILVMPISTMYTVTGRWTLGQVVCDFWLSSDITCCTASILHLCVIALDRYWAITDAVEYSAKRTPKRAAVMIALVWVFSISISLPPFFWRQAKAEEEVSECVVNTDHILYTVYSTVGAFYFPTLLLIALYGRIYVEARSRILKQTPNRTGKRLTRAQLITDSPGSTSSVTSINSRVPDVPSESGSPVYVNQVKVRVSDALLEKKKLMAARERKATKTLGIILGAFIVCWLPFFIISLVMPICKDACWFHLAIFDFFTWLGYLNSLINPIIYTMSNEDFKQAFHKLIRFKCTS
Sequence of Adrenergic Receptor b2 (P07550 whole entry): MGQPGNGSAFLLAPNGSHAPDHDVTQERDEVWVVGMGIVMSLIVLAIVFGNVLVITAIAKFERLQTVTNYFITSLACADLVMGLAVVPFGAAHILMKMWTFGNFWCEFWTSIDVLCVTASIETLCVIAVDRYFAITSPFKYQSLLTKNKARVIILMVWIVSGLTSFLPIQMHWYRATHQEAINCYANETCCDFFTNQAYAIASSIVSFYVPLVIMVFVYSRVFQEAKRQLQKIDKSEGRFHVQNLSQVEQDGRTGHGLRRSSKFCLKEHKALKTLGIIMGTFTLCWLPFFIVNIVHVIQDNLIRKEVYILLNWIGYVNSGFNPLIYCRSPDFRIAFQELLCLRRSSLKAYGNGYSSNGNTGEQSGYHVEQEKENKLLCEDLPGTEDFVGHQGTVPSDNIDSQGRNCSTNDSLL
Sequence of Phosphoinositide 3-kinase g (P48736 whole entry): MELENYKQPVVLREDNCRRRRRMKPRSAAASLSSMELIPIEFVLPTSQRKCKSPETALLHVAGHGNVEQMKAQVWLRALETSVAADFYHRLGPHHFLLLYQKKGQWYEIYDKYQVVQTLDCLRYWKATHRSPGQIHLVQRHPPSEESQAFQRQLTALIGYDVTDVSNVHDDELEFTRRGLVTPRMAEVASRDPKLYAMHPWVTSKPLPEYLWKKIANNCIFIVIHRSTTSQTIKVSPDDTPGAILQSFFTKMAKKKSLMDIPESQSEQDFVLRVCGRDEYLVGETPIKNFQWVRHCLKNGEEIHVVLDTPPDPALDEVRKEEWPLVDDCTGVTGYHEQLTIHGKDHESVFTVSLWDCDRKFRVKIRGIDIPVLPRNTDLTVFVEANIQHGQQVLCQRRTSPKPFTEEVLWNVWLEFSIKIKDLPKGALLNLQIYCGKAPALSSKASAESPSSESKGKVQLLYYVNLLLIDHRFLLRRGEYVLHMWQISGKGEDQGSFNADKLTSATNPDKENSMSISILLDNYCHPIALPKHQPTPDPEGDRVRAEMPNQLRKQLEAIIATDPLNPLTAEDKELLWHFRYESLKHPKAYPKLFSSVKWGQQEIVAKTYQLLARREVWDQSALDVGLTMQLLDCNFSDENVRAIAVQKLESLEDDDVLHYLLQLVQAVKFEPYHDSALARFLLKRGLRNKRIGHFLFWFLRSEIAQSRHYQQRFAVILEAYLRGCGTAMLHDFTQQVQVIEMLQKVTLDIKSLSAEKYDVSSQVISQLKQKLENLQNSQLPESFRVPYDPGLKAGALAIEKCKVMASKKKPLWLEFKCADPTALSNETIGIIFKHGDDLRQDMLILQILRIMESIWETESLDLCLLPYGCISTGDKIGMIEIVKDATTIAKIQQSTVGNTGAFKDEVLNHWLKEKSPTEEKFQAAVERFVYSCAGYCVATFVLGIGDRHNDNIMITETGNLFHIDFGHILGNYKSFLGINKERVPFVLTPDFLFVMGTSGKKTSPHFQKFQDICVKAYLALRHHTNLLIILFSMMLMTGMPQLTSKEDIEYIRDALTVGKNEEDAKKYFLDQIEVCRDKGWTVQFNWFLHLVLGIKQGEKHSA
Sequence of Serotonin Receptor 5HT2A (P28223 whole entry): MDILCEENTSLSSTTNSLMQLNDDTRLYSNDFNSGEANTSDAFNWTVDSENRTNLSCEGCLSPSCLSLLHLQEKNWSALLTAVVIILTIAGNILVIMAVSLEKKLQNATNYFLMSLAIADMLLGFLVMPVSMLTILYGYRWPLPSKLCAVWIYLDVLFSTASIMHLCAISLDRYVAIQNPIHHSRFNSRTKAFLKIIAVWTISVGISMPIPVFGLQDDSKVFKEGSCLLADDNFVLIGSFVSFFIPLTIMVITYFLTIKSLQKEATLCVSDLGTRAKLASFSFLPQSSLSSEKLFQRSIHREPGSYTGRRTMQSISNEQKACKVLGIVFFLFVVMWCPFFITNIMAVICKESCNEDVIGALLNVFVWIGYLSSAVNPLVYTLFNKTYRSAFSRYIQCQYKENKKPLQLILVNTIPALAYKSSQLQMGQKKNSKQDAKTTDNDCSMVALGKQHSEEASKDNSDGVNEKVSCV

SMILES: COc1ncc(-c2ccc3c(Nc4cc(Oc5cc(F)cc(F)c5)cc(C(=O)O)c4)c(S(=O)(=O)NC4CC4)cnc3c2)c(OC)n1 [Compound 1]
- IC50 [1]: 50.1 µM
- EC50 [2]: 15.8 µM
- EC50 [3]: 39.8 µM
- EC50 [4]: 31.6 µM
- IC50 [5]: 39.8 µM
- IC50 [6]: 100 µM
- intracellular fructose-1,6-bisphosphate (FBP) level [7]: increase intracellular levels of fructose-1,6-bisphosphate (FBP); also recorded: Increase in fructose-1,6-bisphosphate (FBP)
- EC50 [8]: 39.8 µM
- IC50 [9]: 31.6 µM
- IC50 [10]: 15.8 µM
- IC50 [11]: 25.1 µM
- IC50 [12]: 31.6 µM

SMILES: COc1ncc(-c2ccc3c(Nc4cc(C(=O)O)cc(C5CCCC5)c4)c(S(=O)(=O)NC4CC4)cnc3c2)c(OC)n1 [Compound 2]
- IC50 [1]: 12.6 µM
- EC50 [2]: 15.8 µM
- EC50 [3]: 39.8 µM
- EC50 [4]: 31.6 µM
- IC50 [5]: 39.8 µM
- IC50 [6]: 100 µM
- intracellular fructose-1,6-bisphosphate (FBP) level [7]: increase intracellular levels of fructose-1,6-bisphosphate (FBP)
- EC50 [8]: 39.8 µM
- IC50 [9]: 31.6 µM
- IC50 [10]: 15.8 µM
- IC50 [11]: 25.1 µM
- IC50 [12]: 31.6 µM
